Laboratory results published in patent publication US11779602B2, “Methods of use for CAR T cells” (ENDOCYTE, INC., priority 2018, dated 2023).

Columns and labels:
MDA-MB-231 tumors [1] = experiment: Dietary folate effect on antitumor activity and CRS, MDA-MB-231 tumors in NSG mice; format: in vivo
Experimental: To study the effect of high dietary folate (FIGS. 63A-K), two sets of NSG mice were placed on either a FA-replete diet (4 mg/kg, Envigo, Indianapolis, Ind.) or a FA-deficient diet (TestDiet, St. Louis, Mo.) upon arrival. On day 0, both sets of the mice received ˜10 million of the same “clinical facsimile” CAR-T cells followed by no EC17 or EC17 SIW at 500 nmol/kg starting on day 3. On the first day of EC17 administration, MDA-MB-231 tumors size averaged around ˜549±184 mm^3 (280-918 mm^3) in FA-replete mice, and ˜559±165 mm^3 (356-961 mm^3) in FA-deficient mice.
Previously, it was shown that administration of FA or a FA ligand helped reduce the severity of CRS in MDA-MB-231 tumor-bearing mice. To test the long-term effect of dietary folate, mice were maintained on defined diets for ˜73 days and used when their tumors reached ˜549±184 mm^3 (280-918 mm^3) in FA-replete mice, and ˜559±165 mm^3 (356-961 mm^3) in FA-deficient mice (FIGS. 63A-K).
Since we started MDA-MB-231 tumors at larger sizes than previous studies, tumor regression due to alloreactivity at this 10-million “clinical facsimile” CAR-T cell dose was not apparent (FIGS. 63A and 63C).
Using anti-human EGFR (clone Hu1) to identify MDA-MB-231 cancer cells within mouse tumor masses after an enzymatic digestion, we analyzed FRα protein expression (clone LK26) in three tumors recovered from mice on FA-replete diet that experienced a relapse despite continuing EC17 treatment. By flow cytometric detection, EGFR+ cancer cells isolated from the smallest tumor (21 mg) expressed FRα, while EGFR+ cancer cells isolated from the two larger tumors (90 mg and 363 mg) had completely lost their FRα expression (FIGS. 63I-K). Using the quantitative radioligand binding assay with ^3H-FA, the loss of functional FR levels on tissue homogenates obtained from these tumors was confirmed (˜2.1 pmol/mg binding potential versus ˜103 pmol/mg in tumors from untreated animals). Therefore, FA-deficiency may lead to enhanced activity and CRS toxicity; while non-physiological FA intake prevents CRS and continuous consumption may lead to reduced activity.

MDA-MB-231 tumors [2] = experiment: EC17/E2-CAR T-cell therapy in NSG mice with and without MDA-MB-231 tumors; format: in vivo
Experimental: MDA-MB-231 tumor cells were grown in folate-deficient RPMI 1640 with 5-10% FBS at 37° C. in a 5% CO2 humidified atmosphere. MDA-MB-231 tumor cells were inoculated subcutaneously at 2.5×10^6 cells per animal. Only […] mice were inoculated and the remaining 22 mice were kept tumor-free.
EGFRt-sorted anti-FITC E2 scFv-CAR T cells were frozen in a T-cell freezing medium. Vials of frozen CAR-T cells were immediately stored at −80° C. The CAR-T cells were quickly thawed at 37° C., washed twice with PBS, and used for animal injection at 10 million viable EGFRt+ E2 CAR-T cells (CD4/CD8 at ˜1:1) per animal. A small aliquot was taken on the day infusion for flow cytometric analysis of E2-CAR T-cell phenotypes.
Mouse blood samples were processed for plasma and stored at −20° C. until use. A human TH1 cytokine panel (Biolegend, Cat. No. 740009) and a human hematopoietic stem cell cytokine panel (Biolegend, Cat. No. 740610) was used to detect human cytokines in the mouse blood. A mouse 13-plex inflammatory cytokine panel (Biolengend, No. 740150) was used to detect mouse cytokines. All analyses were performed per the manufacturer's instructions.
Whole blood cell analysis: Plasma was removed from predetermined volumes of whole EDTA treated blood and RBCs were lysed with RBC lysis solution. […] Determination of the concentration of CAR T cells in each blood sample was calculated according to Invitrogen's instructions. CAR T cells were identified as human CD3ε+ EGFRt+ events and easily distinguished and counted using the Kaluza™ flow cytometry software. The number of CAR T cells in the circulation of each infused mouse was then represented on the graphs as the total number of CAR T cells per 100 μL of whole blood analyzed. Statistical significance was determined by utilizing an unpaired, two-tailed, students t-test with significance set at p<0.05. […]

For `NC1=NC2N=CC(CNc3ccc(C(=O)N[C@@H](CCC(=O)NCCNC(=S)Nc4ccc(-c5c6ccc(=O)cc-6oc6cc(O)ccc56)c(C(=O)O)c4)C(=O)O)cc3)=NC2C(=O)N1` (some centres unmarked) [EC17, FA-(γ)-ethylenediamine-FITC], the “CD3ε+EGFRt+ CAR-T cells in blood” value (MDA-MB-231 tumors [1]; FA-deficient diet, day 52) was 1.6-20.4×10^4 per 100 μL blood, the CRS grade (MDA-MB-231 tumors [1]; FA-deficient diet, subsequent EC17 doses) was 2-3 grade and the “CD3ε+EGFRt+ CAR-T cells in blood” value (MDA-MB-231 tumors [1]; FA-replete diet, day 59) was 0.027-4.3×10^3 per 100 μL blood. The CRS (MDA-MB-231 tumors [1]; FA-replete diet, ~10 million CAR-T cells, EC17 500 nmol/kg weekly) was “did not show symptoms of CRS”, the “IFN-γ production, tumor-bearing vs tumor-free mice” value (MDA-MB-231 tumors [2]; 10 million E2 CAR-T cells, EC17 500 nmol/kg days 2 and 10, plasma 20 hours after second dose) was 23 fold and the “increase in circulating E2 CAR T cells per 100 uL whole blood vs cohorts without EC17” value (MDA-MB-231 tumors [2]; cohorts which received EC17 stimulation) was “more than 10 fold”. The “CAR-T cell expansion by FACS in tumor-free mice” value (MDA-MB-231 tumors [2]; post EC17 SIW500×2 doses) was “no detectable CAR-T cell expansion” and the “cytokine production (IL2, IFN-γ, IL-10) in tumor-bearing mice” value (MDA-MB-231 tumors [2]; with vs without EC17 dose) was “EC17-dependent”.
